According to patent US20250270190A1, “KIT INHIBITORS” (BLUEPRINT MEDICINES CORPORATION, priority 2022, published 2025):
Counter-ions that a name gives are not always drawn.

target: T1, c-kit autophosphorylation (Phospho c-Kit Tyr721) in HMC 1.1 (exon 11/13) cells, V654A (Homo sapiens, UniProt P10721, V560G/V654A); experiment: pKIT Meso Scale Discovery (MSD) assay, inhibition of autophosphorylation of KIT, HMC1.1_V654A; type: cell-based; conditions: Table 1, cell line not named for Table 1, b1056 names pKIT HMC1.1_V654A, read-out: Code (IC50 for inhibition of autophosphorylation of KIT, pKIT MSD assay)
T1 construct: endogenous in cells; host or cells: HMC 1.1 (exon 11/13) cells
Procedure, shortened: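 HMC1.1 cells were serum-starved for 4 h in serum-free, iron-free, phenol red-free IMDM, then treated with compound in dose-response for 90 min at 37 °C. Staurosporine and DMSO served as controls. Lysates were analysed by MSD electrochemiluminescence immunoassay for phospho-c-Kit Tyr721, and % inhibition of autophosphorylation was derived.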

T1 sequence (P10721 26-976 V560G/V654A): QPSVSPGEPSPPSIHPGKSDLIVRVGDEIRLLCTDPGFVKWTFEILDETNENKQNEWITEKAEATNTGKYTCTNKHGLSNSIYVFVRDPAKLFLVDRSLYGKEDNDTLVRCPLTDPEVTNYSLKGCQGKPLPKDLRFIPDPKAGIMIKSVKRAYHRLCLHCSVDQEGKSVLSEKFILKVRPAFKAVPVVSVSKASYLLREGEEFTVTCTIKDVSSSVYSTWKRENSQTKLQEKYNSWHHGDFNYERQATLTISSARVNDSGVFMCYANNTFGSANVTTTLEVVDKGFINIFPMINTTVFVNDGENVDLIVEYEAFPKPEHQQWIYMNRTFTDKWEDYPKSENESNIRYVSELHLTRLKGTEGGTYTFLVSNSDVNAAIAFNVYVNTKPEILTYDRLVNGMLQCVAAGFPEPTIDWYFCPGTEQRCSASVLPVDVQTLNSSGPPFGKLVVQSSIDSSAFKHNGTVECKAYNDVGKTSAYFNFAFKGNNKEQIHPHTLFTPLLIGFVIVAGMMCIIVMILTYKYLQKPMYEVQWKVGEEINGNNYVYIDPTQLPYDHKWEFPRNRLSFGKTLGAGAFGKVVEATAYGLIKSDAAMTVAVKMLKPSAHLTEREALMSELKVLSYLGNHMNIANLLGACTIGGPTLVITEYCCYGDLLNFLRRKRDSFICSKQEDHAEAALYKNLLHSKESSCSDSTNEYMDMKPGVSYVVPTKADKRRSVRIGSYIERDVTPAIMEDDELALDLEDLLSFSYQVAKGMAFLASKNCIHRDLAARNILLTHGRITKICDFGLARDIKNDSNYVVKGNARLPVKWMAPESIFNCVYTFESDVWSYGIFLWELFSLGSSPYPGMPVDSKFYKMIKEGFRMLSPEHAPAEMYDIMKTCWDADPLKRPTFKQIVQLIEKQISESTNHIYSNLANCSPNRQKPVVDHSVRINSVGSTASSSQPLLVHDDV

SMILES	IC50 [nM]
Cn1cc(-c2cnc(Nc3cc(N)nc(C(F)F)n3)cc2OC[C@H]2C[C@H](O)C2)cn1 [Compound 144, (1r,3r)-3-(((2-((6-amino-2-(difluoromethyl)pyrimidin-4-yl)amino)-5-(1-methyl-1H-pyrazol-4-yl)pyridin-4-yl)oxy)methyl)cyclobutan-1-ol]	10 to 40
CN(C)CCn1cc(-c2cnc(Nc3cc(N)nc(C(F)F)n3)cc2OC2CC2)cn1 [Compound 171, N4-(4-cyclopropoxy-5-(1-(2-(dimethylamino)ethyl)-1H-pyrazol-4-yl)pyridin-2-yl)-2-(difluoromethyl)pyrimidine-4,6-diamine]	< 10
COc1cc(Nc2cc(N)nc(C(F)F)n2)ncc1-c1cnn(C[C@H]2CCN2)c1 (single isomer, unassigned) [Compound 101, (R)-N4-(5-(1-(azetidin-2-ylmethyl)-1H-pyrazol-4-yl)-4-methoxypyridin-2-yl)-2-(difluoromethyl)pyrimidine-4,6-diamine or (S)-N4-(5-(1-(azetidin-2-ylmethyl)-1H-pyrazol-4-yl)-4-methoxypyridin-2-yl)-2-(difluoromethyl)pyrimidine-4,6-diamine]	> 40
COc1cc(Nc2cc(N)nc(C(F)F)n2)ncc1-c1cnn(CCO)c1 [Compound 59, 2-(4-(6-((6-amino-2-(difluoromethyl)pyrimidin-4-yl)amino)-4-methoxypyridin-3-yl)-1H-pyrazol-1-yl)ethan-1-ol trifluoroacetate]	10 to 40
CNC(=O)c1cnc(Nc2cc(N)nc(CF)n2)cc1NC(C)CF (single isomer, unassigned) [Compound 27, (S)-6-((6-amino-2-(fluoromethyl)pyrimidin-4-yl)amino)-4-((1-fluoropropan-2-yl)amino)-N-methylnicotinamide or (R)-6-((6-amino-2-(fluoromethyl)pyrimidin-4-yl)amino)-4-((1-fluoropropan-2-yl)amino)-N-methylnicotinamide]	10 to 40
Cn1cc(-c2cnc(Nc3cc(N)nc(CF)n3)cc2OC2CC2)cn1 [Compound 32, N4-(4-cyclopropoxy-5-(1-methyl-1H-pyrazol-4-yl)pyridin-2-yl)-2-(fluoromethyl)pyrimidine-4,6-diamine]	< 10
COc1cc(Nc2cc(N)nc(C(F)F)n2)ncc1-c1cnn(CC(C)N(C)C)c1 (stereo not shown) [Compound 150, 2-(difluoromethyl)-N4-(5-(1-(2-(dimethylamino)propyl)-1H-pyrazol-4-yl)-4-methoxypyridin-2-yl)pyrimidine-4,6-diamine]	< 10
COc1cc(Nc2cc(N)nc(C(F)F)n2)ncc1-c1cnn(C2CC2)c1 [Compound 52, N4-(5-(1-cyclopropyl-1H-pyrazol-4-yl)-4-methoxypyridin-2-yl)-2-(difluoromethyl)pyrimidine-4,6-diamine]	< 10
COc1cc(Nc2cc(N)nc(C(F)F)n2)ncc1-c1cnn([C@@H]2CCNC2)c1 (single isomer, unassigned) [Compound 100, (R)-2-(difluoromethyl)-N4-(4-methoxy-5-(1-(pyrrolidin-3-yl)-1H-pyrazol-4-yl)pyridin-2-yl)pyrimidine-4,6-diamine or (S)-2-(difluoromethyl)-N4-(4-methoxy-5-(1-(pyrrolidin-3-yl)-1H-pyrazol-4-yl)pyridin-2-yl)pyrimidine-4,6-diamine]	10 to 40
COc1cc(Nc2cc(N)nc(C(F)F)n2)ncc1-c1cnn(CCN2CCC2)c1 [Compound 137, N4-(5-(1-(2-(azetidin-1-yl)ethyl)-1H-pyrazol-4-yl)-4-methoxypyridin-2-yl)-2-(difluoromethyl)pyrimidine-4,6-diamine]	10 to 40

Continued, values first:

IC50 [nM]	SMILES
< 10	Nc1cc(Nc2cc(NC3CC3)c(C(=O)NC3CC3)cn2)nc(C(F)F)n1 [Compound 57, 6-((6-amino-2-(difluoromethyl)pyrimidin-4-yl)amino)-N-cyclopropyl-4-(cyclopropylamino)nicotinamide]
< 10	[2H]C([2H])([2H])Nc1cc(Nc2cc(N)nc(C(F)F)n2)ncc1C(=O)NC [Compound 5, 6-((6-amino-2-(difluoromethyl)pyrimidin-4-yl)amino)-N-methyl-4-((methyl-d3)amino)nicotinamide]
< 10	Nc1cc(Nc2cc(OC3CC3)c(-c3cnn([C@@H]4CCNC4)c3)cn2)nc(C(F)F)n1 (single isomer, unassigned) [Compound 160, (R)-N4-(4-cyclopropoxy-5-(1-(pyrrolidin-3-yl)-1H-pyrazol-4-yl)pyridin-2-yl)-2-(difluoromethyl)pyrimidine-4,6-diamine or (S)-N4-(4-cyclopropoxy-5-(1-(pyrrolidin-3-yl)-1H-pyrazol-4-yl)pyridin-2-yl)-2-(difluoromethyl)pyrimidine-4,6-diamine]
< 10	Nc1cc(Nc2cc(OC3CC3)c(-c3cnn(C[C@@H]4CCN4)c3)cn2)nc(C(F)F)n1 (single isomer, unassigned) [Compound 162, (S)-N4-(5-(1-(azetidin-2-ylmethyl)-1H-pyrazol-4-yl)-4-cyclopropoxypyridin-2-yl)-2-(difluoromethyl)pyrimidine-4,6-diamine or (R)-N4-(5-(1-(azetidin-2-ylmethyl)-1H-pyrazol-4-yl)-4-cyclopropoxypyridin-2-yl)-2-(difluoromethyl)pyrimidine-4,6-diamine]
10 to 40	Nc1cc(Nc2cc(NC3CC3)c(C(=O)NCC3CC3)cn2)nc(C(F)F)n1 [Compound 79, 6-((6-amino-2-(difluoromethyl)pyrimidin-4-yl)amino)-4-(cyclopropylamino)-N-(cyclopropylmethyl)nicotinamide]
< 10	CNC(=O)c1cnc(Nc2cc(N)nc(C(F)F)n2)cc1N[C@H](C)C(F)F [Compound 73, (R)-6-((6-amino-2-(difluoromethyl)pyrimidin-4-yl)amino)-4-((1,1-difluoropropan-2-yl)amino)-N-methylnicotinamide]
< 10	CC(C)(O)CCn1cc(-c2cnc(Nc3cc(N)nc(C(F)F)n3)cc2OC2CC2)cn1 [Compound 185, 4-(4-(6-((6-amino-2-(difluoromethyl)pyrimidin-4-yl)amino)-4-cyclopropoxypyridin-3-yl)-1H-pyrazol-1-yl)-2-methylbutan-2-ol]
< 10	CNc1cc(Nc2cc(N)nc(C(F)F)n2)ncc1C(=O)NC1CC1 [Compound 24, 6-((6-amino-2-(difluoromethyl)pyrimidin-4-yl)amino)-N-cyclopropyl-4-(methylamino)nicotinamide]
< 10	CNC(=O)c1cnc(Nc2cc(N)nc(CF)n2)cc1NC1CC1 [Compound 8, 6-((6-amino-2-(fluoromethyl)pyrimidin-4-yl)amino)-4-(cyclopropylamino)-N-methylnicotinamide]
10 to 40	CC(C)Nc1cc(Nc2cc(N)nc(C(F)F)n2)ncc1C(=O)NCC1CC1 [Compound 86, 6-((6-amino-2-(difluoromethyl)pyrimidin-4-yl)amino)-N-(cyclopropylmethyl)-4-(isopropylamino)nicotinamide]
> 40	CNc1cc(Nc2cc(N)nc(C(F)F)n2)ncc1C(N)=O [Compound 2, 6-((6-amino-2-(difluoromethyl)pyrimidin-4-yl)amino)-4-(methylamino)nicotinamide]
< 10	CCNC(=O)c1cnc(Nc2cc(N)nc(C(F)F)n2)cc1NC1CC1 [Compound 38, 6-((6-amino-2-(difluoromethyl)pyrimidin-4-yl)amino)-4-(cyclopropylamino)-N-ethylnicotinamide]
